# Test results reported in patent US10696686B2, “Herbicidally active (alkynyl-phenyl)-substituted cyclic dione compounds and derivatives thereof” (Syngenta Limited, priority 2013, dated 2020).
# Tests used:
# [1] = system: Echinochloa crus-galli (ECHCG); assay: Biological Example 1B glasshouse assay, pre-emergence application; format: in vivo; conditions: 250 g/ha, 13 days after application
# In short: (§1)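 Seeds sown in sandy or sandy-loam soil were sprayed 1 day after sowing (pre-emergence) or after 8 days (post-emergence) with the herbicide formulated in acetone/water (50:50) plus 0.5% Tween 20. Plants grew at 24/16 °C day/night, 14 h light, 65% humidity; phytotoxicity (0–100%) was scored visually 13 days later.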
# [2] = system: Abutilon theophrasti (ABUTH); assay: as above; format: in vivo; conditions: 250 g/ha, 13 days after application
# In short: as §1
smiles,measurement,setting,value
"C#CCC1CC(=O)C(c2c(F)cc(C#CC)cc2OC)C1=O (centres unmarked) [Compound A8, 2-(2-fluoro-6-methoxy-4-prop-1-ynyl-phenyl)-4-prop-2-ynyl-cyclopentane-1,3-dione]",Percentage phytotoxicity ECHCG,[1],100%
same,Percentage phytotoxicity ABUTH,[2],0%
